From patent publication US20120220567A1, “BENZO-FUSED OXAZEPINE COMPOUNDS AS STEAROYL-COENZYME A DELTA-9 DESATURASE INHIBITORS” (priority 2009, published 2012)
Read-outs that look alike come from different tables or passages of the source.

Target: T1, SCD-1 (Homo sapiens, UniProt O00767)
T1 construct: 50 μg of protein from a HepG2 cell P2 pellet; endogenous in cells; host or cells: HepG2 cells (P2 pellet)
T1 sequence (O00767 1-359): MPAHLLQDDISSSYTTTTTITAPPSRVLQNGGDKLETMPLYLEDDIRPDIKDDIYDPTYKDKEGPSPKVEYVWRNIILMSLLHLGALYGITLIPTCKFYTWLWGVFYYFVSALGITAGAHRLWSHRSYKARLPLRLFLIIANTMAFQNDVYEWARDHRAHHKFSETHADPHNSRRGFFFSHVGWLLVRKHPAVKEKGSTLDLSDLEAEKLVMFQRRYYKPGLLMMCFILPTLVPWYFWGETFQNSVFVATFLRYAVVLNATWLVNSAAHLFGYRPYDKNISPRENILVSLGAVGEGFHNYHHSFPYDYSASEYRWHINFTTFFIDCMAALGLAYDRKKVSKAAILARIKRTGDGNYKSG
Test: Stearoyl-CoA desaturase assay (HepG2 cell P2 pellet)
Type: biochemical
Settings: protein from HepG2 cell P2 pellet, 20 μM stearoyl-CoA, 15 min at 25° C., read-out: Ave IC50
Description: Stearoyl-CoA desaturase assays were performed in according to Talamo and Bloch. […] Assays were run in triplicate in 100-μl volumes of 100 mM TrisHCl, pH 7.3, containing 20 μM stearoyl-CoA, 2 mM β-NADH, and 50 μg of protein from a HepG2 cell P2 pellet. Since SCD-1 is the only isoform of SCD expressed in these cells, the assay is specific for SCD-1 with these cells as the source of enzyme. Reaction mixtures were incubated fifteen minutes at 25° C. and reactions were then stopped with a volume of trichloroacetic acid giving a final concentration of 0.2%. After five minutes, a 90-μl volume was transferred to a Millipore Multiscreen HTS 96-well filtration plate (MSHVN4B50) containing 125 μl of 10% charcoal in each well, to which vacuum had been previously applied. Plates were shaken fifteen minutes and then filtered into a collection plate. Fifty-μI volumes of filtrate were transferred to another plate containing 150 μl of MicroScint 40 for counting on a TopCount scintillation counter.

[1] = Table 2, compounds of formula (Ib)
[2] = Table 1, compounds of formula (Ia)
[3] = Table 3, compounds of formula (Ic)

| Compound | IC50 [1] | IC50 [3] | further results |
| --- | --- | --- | --- |
| CNC(=O)c1cnc(N2CCC3(CC2)CCN(Cc2cccc(C(F)(F)F)c2)c2ccccc2O3)s1 [Compound 58, N-methyl-2-(5-(3-(trifluoromethyl)benzyl)-4,5-dihydro-3H-spiro[benzo[b][1,4]oxazepine-2,4′-piperidine]-1′-yl)thiazole-5-carboxamide] | 0.5 to 49 nM | – | – |
| COc1ccc(CN2CCC3(CCN(C(=O)CNC(C)=O)CC3)Oc3ccccc32)cc1F [Compound 31] | – | – | IC50 [2]: 500 to 10000 nM |
| COC(=O)CCNC(=O)c1ccc(N2CCC3(CC2)CCN(Cc2cccc(C(F)(F)F)c2)c2cccc(F)c2O3)nn1 [Compound 173] | – | 0.5 to 49 nM | – |
| CC(=O)NCC(=O)N1CCC2(CC1)CCN(Cc1cccc(F)c1)c1ccccc1O2 [Compound 29] | – | – | IC50 [2]: 500 to 10000 nM |
| CC(C)CCNC(=O)c1cnc(N2CCC3(CC2)CCN(Cc2ccc(C(C)(C)C)cc2)c2cccc(F)c2O3)s1 [Compound 109] | 500 to 10000 nM | – | – |
| CC(=O)NCC(=O)N1CCC2(CC1)CCN(Cc1ccc(F)cc1)c1ccccc1O2 [Compound 27] | – | – | IC50 [2]: 50 to 499 nM |
| CN(C)CCNC(=O)c1ccc(N2CCC3(CC2)CCN(Cc2cccc(C(F)(F)F)c2)c2ccccc2O3)nn1 [Compound 154] | – | 500 to 10000 nM | – |
| O=C(NCC1CC1)c1ccc(N2CCC3(CC2)CCN(Cc2cccc(C(F)(F)F)c2)c2ccccc2O3)nn1 [Compound 168] | – | 50 to 499 nM | – |
| CCc1ccc(CN2CCC3(CCN(C(=O)CNC(=O)C(C)C)CC3)Oc3ccccc32)cc1 [Compound 6] | – | – | IC50 [2]: 500 to 10000 nM |
| CCc1ccc(CN2CCC3(CCN(C(=O)[C@H](C)NC(C)=O)CC3)Oc3ccccc32)cc1 [Compound 3] | – | – | IC50 [2]: > 10000 nM |
| CCc1ccc(CN2CCC3(CCN(c4ccc(C(=O)NCCC5CC5)nn4)CC3)Oc3ccccc32)cc1 [Compound 176] | – | 0.5 to 49 nM | – |
| CC(=O)NCC(=O)N1CCC2(CC1)CCN(Cc1ccc(Cl)s1)c1ccccc1O2 [Compound 33] | – | – | IC50 [2]: 500 to 10000 nM |
| CC(=O)NCC(=O)N1CCC2(CC1)CCN(Cc1ccc(Br)cc1)c1ccccc1O2 [Compound 40] | – | – | IC50 [2]: 500 to 10000 nM |
| CC(C)(C)c1ccc(CN2CCC3(CCN(c4ncc(C(=O)NCCC(=O)O)s4)CC3)Oc3c(F)cccc32)cc1 [Compound 123] | 0.5 to 49 nM | – | – |
| CC(C)(C)c1ccc(CN2CCC3(CCN(c4ccc(C(=O)NCCc5ccncc5)nn4)CC3)Oc3c(F)cccc32)cc1 [Compound 144] | – | 0.5 to 49 nM | – |
| CC(C)(C)c1ccc(CN2CCC3(CCN(c4ncc(C(=O)NCCC(=O)O)s4)CC3)Oc3ccccc32)cc1 [Compound 130] | 0.5 to 49 nM | – | – |
| CC(=O)NCC(=O)N1CCC2(CC1)CCN(Cc1ccc(C(C)(C)C)cc1)c1cccc(Cl)c1O2 [Compound 15] | – | – | IC50 [2]: 500 to 10000 nM |
| CC(=O)NCC(=O)N1CCC2(CC1)CCN(Cc1cccc(Br)c1)c1ccccc1O2 [Compound 39] | – | – | IC50 [2]: 500 to 10000 nM |

| Compound | IC50 [1] | IC50 [3] | further results |
| --- | --- | --- | --- |
| O=C(NCCCO)c1cnc(N2CCC3(CC2)CCN(Cc2cccc(C(F)(F)F)c2)c2ccccc2O3)s1 [Compound 62] | 0.5 to 49 nM | – | – |
| CC(C)(C)CCNC(=O)c1ccc(N2CCC3(CC2)CCN(Cc2cccc(C(F)(F)F)c2)c2ccccc2O3)nn1 [Compound 159] | – | 500 to 10000 nM | – |
| CC(C)CNC(=O)c1cnc(N2CCC3(CC2)CCN(Cc2ccc(C(C)(C)C)cc2)c2cccc(F)c2O3)s1 [Compound 84] | 500 to 10000 nM | – | – |
| O=C(NCCC1CC1)c1ccc(N2CCC3(CC2)CCN(Cc2cccc(C(F)(F)F)c2)c2cccc(F)c2O3)nn1 [Compound 175] | – | 0.5 to 49 nM | – |
| CC(=O)NCC(=O)N1CCC2(CC1)CCN(Cc1cccc(OC(F)(F)F)c1)c1ccccc1O2 [Compound 36] | – | – | IC50 [2]: 500 to 10000 nM |
| CC(C)c1ccc(CN2CCC3(CCN(c4ccc(C(N)=O)nn4)CC3)Oc3ccccc32)cc1 [Compound 182] | – | 0.5 to 49 nM | – |
| CC(C)(C)c1ccc(CN2CCC3(CCN(c4ncc(C(=O)NCC5CCCO5)s4)CC3)Oc3c(F)cccc32)cc1 (stereo not shown) [Compound 79] | 50 to 499 nM | – | – |
| CCc1ccc(CN2CCC3(CCN(C(=O)[C@@H](C)NC(C)=O)CC3)Oc3ccccc32)cc1 [Compound 4] | – | – | IC50 [2]: 500 to 10000 nM |
| C[C@H](O)CNC(=O)c1cnc(N2CCC3(CC2)CCN(Cc2ccc(C(C)(C)C)cc2)c2cccc(F)c2O3)s1 [Compound 110] | 0.5 to 49 nM | – | – |
| CC(C)(C)OC(=O)CNC(=O)c1cnc(N2CCC3(CC2)CCN(Cc2ccc(C(C)(C)C)cc2)c2cccc(F)c2O3)s1 [Compound 115] | 0.5 to 49 nM | – | – |
| CC(=O)NCC(=O)N1CCC2(CC1)CCN(Cc1ccc(C#N)cc1)c1ccccc1O2 [Compound 21] | – | – | IC50 [2]: 500 to 10000 nM |
| CC(C)(C)c1ccc(CN2CCC3(CCN(c4ncc(C(=O)NCCN5CCCC5=O)s4)CC3)Oc3c(F)cccc32)cc1 [Compound 81] | 500 to 10000 nM | – | – |
| CC(=O)NCC(=O)N1CCC2(CC1)CCN(Cc1ccccc1F)c1ccccc1O2 [Compound 19] | – | – | IC50 [2]: > 10000 nM |
| Cc1nn(C)c(C)c1CNC(=O)c1cnc(N2CCC3(CC2)CCN(Cc2ccc(C(C)(C)C)cc2)c2cccc(F)c2O3)s1 [Compound 90] | 500 to 10000 nM | – | – |
| C[S+]([O-])CCNC(=O)c1cnc(N2CCC3(CC2)CCN(Cc2ccc(C(C)(C)C)cc2)c2cccc(F)c2O3)s1 (stereo not shown) [Compound 93] | 50 to 499 nM | – | – |
| O=C(NCCc1ccncc1)c1ccc(N2CCC3(CC2)CCN(Cc2cccc(C(F)(F)F)c2)c2cccc(F)c2O3)nn1 [Compound 174] | – | 0.5 to 49 nM | – |
| O=C(NCCc1cccnc1)c1ccc(N2CCC3(CC2)CCN(Cc2cccc(C(F)(F)F)c2)c2ccccc2O3)nn1 [Compound 163] | – | 0.5 to 49 nM | – |
| FC(F)(F)c1cccc(CN2CCC3(CCN(c4ncc(Br)s4)CC3)Oc3ccccc32)c1 [Compound 53] | 500 to 10000 nM | – | – |

Now from value to compound, other results behind:

| IC50 [1] | IC50 [3] | Compound | further results |
| --- | --- | --- | --- |
| 0.5 to 49 nM | – | O=C(O)CCNC(=O)c1cnc(N2CCC3(CC2)CCN(Cc2cccc(C(F)(F)F)c2)c2cccc(F)c2O3)s1 [Compound 133] | – |
| 50 to 499 nM | – | CC(C)(C)c1ccc(CN2CCC3(CCN(c4ncc(C(=O)NCC5CCCO5)s4)CC3)Oc3c(F)cccc32)cc1 (stereo not shown) [Compound 89] | – |
| 0.5 to 49 nM | – | O=C(NC[C@H](O)CO)c1cnc(N2CCC3(CC2)CCN(Cc2cccc(C(F)(F)F)c2)c2cccc(F)c2O3)s1 [Compound 132] | – |
| 50 to 499 nM | – | CC(C)(C)c1ccc(CN2CCC3(CCN(c4ncc(C(=O)NC5CC5)s4)CC3)Oc3ccccc32)cc1 [Compound 65] | – |
| – | 500 to 10000 nM | CC(C)(C)c1ccc(CN2CCC3(CCN(c4ccc(C(=O)NCCc5c[nH]cn5)cn4)CC3)Oc3c(F)cccc32)cc1 [Compound 148] | – |
| > 10000 nM | – | Cc1n[nH]c(C)c1CCNC(=O)c1cnc(N2CCC3(CC2)CCN(Cc2ccc(C(C)(C)C)cc2)c2cccc(F)c2O3)s1 [Compound 100] | – |
| – | 500 to 10000 nM | COC(=O)c1ccc(N2CCC3(CC2)CCN(Cc2ccc(C(C)(C)C)cc2)c2ccccc2O3)nn1 [Compound 139] | – |
| – | 500 to 10000 nM | O=C(NCCC1CC1)c1ccc(N2CCC3(CC2)CCN(Cc2cccc(C(F)(F)F)c2)c2ccccc2O3)cc1 [Compound 171] | – |
| 500 to 10000 nM | – | Cc1cnc(CNC(=O)c2cnc(N3CCC4(CC3)CCN(Cc3ccc(C(C)(C)C)cc3)c3cccc(F)c3O4)s2)cn1 [Compound 112] | – |
| – | 50 to 499 nM | CC(C)(C)c1ccc(CN2CCC3(CCN(c4ccc(C(=O)O)cn4)CC3)Oc3c(F)cccc32)cc1 [Compound 145] | – |
| – | 0.5 to 49 nM | CC(C)Oc1ccc(CN2CCC3(CCN(c4ccc(C(N)=O)nn4)CC3)Oc3ccccc32)cc1 [Compound 179] | – |
| > 10000 nM | – | CC(C)(C)c1ccc(CN2CCC3(CCN(c4ncc(C(=O)NC[C@H]5CC[C@H](O)C5)s4)CC3)Oc3c(F)cccc32)cc1 [Compound 82] | – |
| 0.5 to 49 nM | – | O=C(NC[C@H](O)CO)c1cnc(N2CCC3(CC2)CCN(Cc2cccc(C(F)(F)F)c2)c2ccccc2O3)s1 [Compound 61] | – |
